Experimental data published in patent US6303612A, “Derivatives of hydroxyphenylsulfanylbenzoic and hydroxphenylsulfanylarylacetic acids” (Leciva, A.S., priority 1998, dated 2001).
pIC50: −log10 of the molar value. ≈ marks a conversion by molar mass, not a printed value. Where two headings read alike, the source gives them in different places.

What was measured:
[1] = tested on: LTB4 production in rat polymorphonuclear cells; assay: Ex vivo inhibition of LTB4 production (LTB4 biosynthesis); format: cell-based; details: for Inh. of LTB4 biosynth., %: at 30 μg (%/μg); for IC50: Rattus norvegicus, read-out: Inh. of LTB4 biosynth., IC50
[2] = biological target: LTB4 receptor (Cavia porcellus, UniProt H0VYV8); assay: LTB4 receptor binding study; details: 3H-LTB4, guinea-pig spleen membranes; for pIC50: read-out: Inh. of LTB4 rec. binding, IC50; for inhibition at 20 µM: read-out: Inh. of LTB4 rec. binding, %
Chain of LTB4 receptor (H0VYV8 1-348): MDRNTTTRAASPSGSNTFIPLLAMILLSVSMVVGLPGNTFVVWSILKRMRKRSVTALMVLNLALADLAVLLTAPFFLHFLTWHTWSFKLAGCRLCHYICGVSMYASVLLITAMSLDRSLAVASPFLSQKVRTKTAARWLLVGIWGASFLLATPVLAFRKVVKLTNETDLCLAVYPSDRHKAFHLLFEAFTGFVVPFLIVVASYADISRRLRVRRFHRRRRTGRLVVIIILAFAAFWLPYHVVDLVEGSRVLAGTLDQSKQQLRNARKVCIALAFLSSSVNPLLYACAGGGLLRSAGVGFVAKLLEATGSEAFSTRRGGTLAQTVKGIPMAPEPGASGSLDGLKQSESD
Method in brief: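 Male guinea-pig spleen membranes (2 mg) incubated with 0.3 nM ^3H-LTB4 for 30 min at 25 °C; nonspecific binding defined with 0.1 μM LTB4. Bound ligand collected by GF/C filtration, counted by liquid scintillation to give specific binding.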

[3] = biological target: T1, LTD4 receptor (Cavia porcellus, UniProt Q2NNR5); assay: LTD4 receptor binding study; details: 3H-LTD4, guinea-pig lung membranes; for pIC50: read-out: Inh. of LTD4 rec. binding, IC50; for inhibition at 100 µM: read-out: Inh. of LTD4 rec. binding, %
T1 construct: The membrane fraction was prepared from male guinea-pig lungs; from tissue; host or cells: male guinea-pig lung membranes
T1 sequence (Q2NNR5 1-340): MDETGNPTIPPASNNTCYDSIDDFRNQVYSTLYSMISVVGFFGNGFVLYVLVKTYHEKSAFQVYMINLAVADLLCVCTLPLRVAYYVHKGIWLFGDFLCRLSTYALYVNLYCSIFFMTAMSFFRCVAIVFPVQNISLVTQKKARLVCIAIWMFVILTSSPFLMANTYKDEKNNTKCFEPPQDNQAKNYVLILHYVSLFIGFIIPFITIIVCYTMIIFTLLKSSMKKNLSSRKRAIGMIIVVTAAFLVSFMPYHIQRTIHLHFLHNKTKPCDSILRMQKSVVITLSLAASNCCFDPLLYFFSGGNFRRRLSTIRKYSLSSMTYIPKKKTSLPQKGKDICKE
Method in brief: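 Guinea-pig lung membranes (male animals) were incubated with 0.4 nM ³H-LTD4 for 60 min at 25 °C. Nonspecific binding was defined with 0.1 μM LTD4. Bound radioactivity was measured after filtration and washing.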

[4] = tested on: peroxidation of lipids from the hepatic cells membranes; assay: Antioxidant effect in vitro; format: biochemical; details: at 100 μg
Text: Antioxidant Effect in vitro
The end-product, malonic dialdehyde, was transformed to coloured complex with thiobarbituric acid and determined spectrophotometrically. The antioxidant effect was expressed in % of peroxidation inhibition in the presence of the compound tested in comparison to a control sample.

[5] = tested on: Wistar-Han rats; assay: Inhibition of carrageenan edema; format: in vivo; details: dose 100 mg/kg; for inhibition in vivo at 100 mg/kg: Rattus norvegicus, read-out: CE: inhibition of carrageenan-induced edema, % of inh.
[6] = tested on: rats; assay: Inhibition of carrageenan-induced pleuritis in rats; format: in vivo; details: dose 100 mg/kg, oral, values with mark n: p > 0.05; for inhibition in vivo at 100 mg/kg: Rattus norvegicus, po, 4 h
Method in brief: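 Rats given test drug as single oral dose 1 h before intrapleural 0.5% carrageenan (1 ml) under light ether anaesthesia. Pleural exudate collected 4 h later; volume, cellularity and total cell count measured.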

[7] = tested on: male mice; assay: Inhibition of arachidonic acid-induced ear inflammation in mice; format: in vivo; details: for inhibition in vivo at 200 mg/kg: Mus musculus, po, 1 h
Method in brief: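 Compounds given orally 1 h before ear inflammation was induced in male mice with 20 µl arachidonic acid in acetone (100 mg/ml). Animals killed 1 h after induction. Ear hyperemia and ear-lobe weight assessed against the vehicle-treated contralateral ear.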

[8] = tested on: bronchospasm induced by ovalbumin; assay: Inhibition of bronchospasm induced by ovalbumin; format: in vivo
Method: (§1) Inhibition of Allergic Bronchospasm Induced by […] (Compound 48/80 or Ovalbumin, Respectively)
(§2) The modified method of Kreutner W. et al (Krelutner W. et al.: Agents Actions 28, 253 (1989)) was used. Bronchoconstrictioin was induced by intravenous injection of 1 μg/kg LTD4 (3 mg/kg of compound […] or 0.35 mg/kg of ovalbumin, respectively). In the case of oval-bumin, the animals were senzitized by intraperitoneal injection of ovalbumin (100 mg/kg) 14 days before induction. The compounds tested were applied 5 min before the administration of the inductor; the vehiculum used for the application of compound tested was administered to the control group of animals. The tracheal pressure was determined in the intervals of 2, 4 and 10 minutes after induction. The effect was expressed in percentage inhibition of bronchospasm relative to the untreated control.

[9] = tested on: bronchospasm induced by LTD4; assay: Inhibition of bronchospasm induced by LTD4; format: in vivo
Method: as §1, §2

[10] = tested on: bronchospasm induced by histamine liberator 48/80; assay: Inhibition of bronchospasm induced by histamine liberator 48/80; format: in vivo; details: dose 100 mg/kg
Method: as §1, §2

[11] = read-out: Experimental pleuritis, A: volume of exudate in pleural cavity, % of inh.
[12] = read-out: Experimental pleuritis, B: number of cells, % of inh.
[13] = read-out: Experimental pleuritis, C: cellularity in a volume unit, % of inh.
[14] = values with mark n: p > 0.05, read-out: Ear edema, D: edema of ear lobe, % of inh.
[15] = values with mark n: p > 0.05, read-out: Ear edema, E: hyperemia of ear lobe, % of inh.
[16] = dose 200 mg/kg, oral, values with mark n: p > 0.05, 200 mg/kg

| pIC50 [2] | pIC50 [3] | inhibition at 100 µM [3] | IC50 [1] | inhibition at 20 µM ([2]; at 20 μM) | Compound | Inh. of LTB4 biosynth., % [1] | Antiox. effect, % of peroxidation inhibition [4] | inhibition in vivo at 100 mg/kg [5] | inhibition in vivo at 100 mg/kg [6, 11] | inhibition in vivo at 100 mg/kg [6, 12] | inhibition in vivo at 100 mg/kg [6, 13] | inhibition in vivo at 200 mg/kg [7, 14] | inhibition in vivo at 200 mg/kg [7, 15] | inhibition in vivo at 100 mg/kg ([8]; 2 min) | inhibition in vivo at 100 mg/kg ([8]; 4 min) | inhibition in vivo at 100 mg/kg ([8]; 10 min) | inhibition in vivo at 100 mg/kg ([9]; 2 min) | inhibition in vivo at 100 mg/kg ([9]; 4 min) | inhibition in vivo at 100 mg/kg ([9]; 10 min) | other results |
| --- | --- | --- | --- | --- | --- | --- | --- | --- | --- | --- | --- | --- | --- | --- | --- | --- | --- | --- | --- | --- |
| 4.04 | 7.62 | 100% |  |  | O=C(O)c1ccc(Sc2ccc(OCc3ccc4ccccc4n3)cc2)cc1 [Compound 16] | 98% | 13% | 25% | 26% | 33% | 11% | 27% | 3% | 41% | 45% | 63% | 69% | 70.8% |  | Inh. of LTB4 biosynth., IC50 [1]: 0.004 µg/mL; Inh. of LTB4 rec. binding, % ([2]; at 20 μM): 19% |
| 4.30 | 5.42 | 84% | 0.07 µg/mL (≈ 0.166 µM) | 22% | O=C(O)c1ccc(Sc2ccc(OCc3ccc4cc(Cl)ccc4n3)cc2)cc1 [Compound 22, 4-(4-(6-Chloroquinoline-2-ylmethoxy)phenylsulfanyl)benzoic Acid] | 97% | 13% | 14% | 10% | 25% | 15% | 1% | 9% | 3% | 15% | 30% | 14% | 33% | 43% |  |
| 4.35 | 6.20 | 100% | 0.08 µg/mL (≈ 0.206 µM) | 38% | O=C(O)c1ccccc1Sc1cccc(OCc2ccc3ccccc3n2)c1 [Compound 17, 2-(3-(Quinoline-2-ylmethoxy)phenylsulfanyl)benzoic Acid] | 100% | 4% | 19% | 5% | 20% | 15% | 16% | 3% | 23% | 36% | 50% | 11% | 28% | 23% |  |
| 4.50 | 6.57 | 100% |  | 31% | O=C(O)c1ccccc1Sc1cccc(OCc2ccc3cc(Cl)ccc3n2)c1 [Compound 20, 2-(3-(6-Chloroquinoline-2-ylmethoxy)phenylsulfanyl)benzoic Acid] | 99% | 1% |  | 15% | 19% |  |  |  | 66% | 72% | 85% | 6% | 38% | 54% | Inh. of LTB4 biosynth., IC50 [1]: 0.035 µg/mL; CE: inhibition of carrageenan-induced edema, % of inh. [5]: 25%; Experimental pleuritis, C: cellularity in a volume unit, % of inh. ([6]; 100 mg/kg): 4%; Ear edema, D: edema of ear lobe, % of inh. [7, 16]: 12%; Ear edema, E: hyperemia of ear lobe, % of inh. [7, 16]: 0% |
|  | 4.39 | 79% | 7.6 µg/mL | 28% | O=C(O)c1ccccc1Sc1ccc(OCCCN2CCN(Cc3ccc(Cl)cc3)CC2)cc1 [Compound 13, Dimethanesulfonate of 2-(4-(3-(1-(4-Chlorobenzyl)piperazin-4-yl)-propoxy)phenylsulfanyl)benzoic Acid] | 100% |  |  |  |  |  |  |  | 46% | 35% | 51% | 6% | 38% | 54% | Inhibition of bronchospasm induced by histamine liberator 48/80 ([10]; 2 min): 84%; Inhibition of bronchospasm induced by histamine liberator 48/80 ([10]; 4 min): 82%; Inhibition of bronchospasm induced by histamine liberator 48/80 ([10]; 10 min): 69% |
| 4.15 | 5.77 | 100% | 0.13 µg/mL (≈ 0.336 µM) | 34% | O=C(O)c1ccccc1Sc1ccc(OCc2ccc3ccccc3n2)cc1 [Compound 19, 2-(4-(Quinoline-2-ylmethoxy)phenylsulfanyl)benzoic Acid] | 100% | 10% | 13% | 17% | 23% | 6% | 20% | 5% | 21% | 27.3% |  | 14% | 33% | 43% |  |
| 5.15 | 4.80 | 69% | < 0.01 µg/mL | 85% | O=C(O)c1ccccc1Sc1cccc(OCCCN2CCN(Cc3ccc(Cl)cc3)CC2)c1 [Compound 12, Bis-hydrogenmaleate of 2-(3-(3-(1-(4-Chlorobenzyl)piperazin-4-yl)propoxy)-phenylsulfanyl)benzoic Acid] | 100% | 17% | 27% |  |  |  | 18% | 7% | 71% | 73% | 90% | 9% | 41% | 60% | Inhibition of bronchospasm induced by histamine liberator 48/80 ([10]; 2 min): 77%; Inhibition of bronchospasm induced by histamine liberator 48/80 ([10]; 4 min): 78%; Inhibition of bronchospasm induced by histamine liberator 48/80 ([10]; 10 min): 85% |
